The source of these data is patent publication US11780821B2, “Inhibitors of fibroblast activation protein” (Praxis Biotech LLC, priority 2017, dated 2023).

Format in all cases: biochemical
The target of test [1] is T1, recombinant human FAPα (rhFAPα) (Homo sapiens, UniProt Q12884).
T1 construct: purchased R&S system (so in the source)
T1 sequence (Q12884 1-760): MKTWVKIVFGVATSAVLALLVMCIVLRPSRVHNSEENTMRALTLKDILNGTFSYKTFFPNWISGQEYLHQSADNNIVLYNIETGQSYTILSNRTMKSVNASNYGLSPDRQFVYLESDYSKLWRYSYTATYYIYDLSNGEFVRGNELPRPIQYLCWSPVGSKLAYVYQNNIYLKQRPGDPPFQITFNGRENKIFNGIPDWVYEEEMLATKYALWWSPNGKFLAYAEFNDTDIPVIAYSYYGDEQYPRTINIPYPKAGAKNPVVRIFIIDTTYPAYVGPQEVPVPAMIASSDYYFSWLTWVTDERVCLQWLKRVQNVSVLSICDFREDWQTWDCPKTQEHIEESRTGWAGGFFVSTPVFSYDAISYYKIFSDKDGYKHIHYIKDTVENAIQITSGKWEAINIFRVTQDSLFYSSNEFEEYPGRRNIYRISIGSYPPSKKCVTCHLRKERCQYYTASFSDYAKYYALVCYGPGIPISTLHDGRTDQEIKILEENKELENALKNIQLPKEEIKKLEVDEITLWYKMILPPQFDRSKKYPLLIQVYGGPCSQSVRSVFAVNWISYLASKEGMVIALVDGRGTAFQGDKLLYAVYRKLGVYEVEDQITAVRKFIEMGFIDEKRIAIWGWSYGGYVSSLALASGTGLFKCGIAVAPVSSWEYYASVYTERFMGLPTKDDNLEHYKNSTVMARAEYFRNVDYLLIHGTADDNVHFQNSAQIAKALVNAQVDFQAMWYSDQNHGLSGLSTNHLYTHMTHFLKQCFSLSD
Nature of the test: FAPα enzymatic exopeptidase (dipeptidase) activity assay. The following applies: for inhibition at 1 µM: read-out: rhFAPα (% exo inh @ 1 μM); for IC50: exopeptidase, read-out: rhFAPα (exo IC50).

In test [2] the target is T2, recombinant human DPPIV (rhDPPIV) (Homo sapiens, UniProt P27487).
T2 construct: purchased R&S system (so in the source)
T2 sequence (P27487 whole entry): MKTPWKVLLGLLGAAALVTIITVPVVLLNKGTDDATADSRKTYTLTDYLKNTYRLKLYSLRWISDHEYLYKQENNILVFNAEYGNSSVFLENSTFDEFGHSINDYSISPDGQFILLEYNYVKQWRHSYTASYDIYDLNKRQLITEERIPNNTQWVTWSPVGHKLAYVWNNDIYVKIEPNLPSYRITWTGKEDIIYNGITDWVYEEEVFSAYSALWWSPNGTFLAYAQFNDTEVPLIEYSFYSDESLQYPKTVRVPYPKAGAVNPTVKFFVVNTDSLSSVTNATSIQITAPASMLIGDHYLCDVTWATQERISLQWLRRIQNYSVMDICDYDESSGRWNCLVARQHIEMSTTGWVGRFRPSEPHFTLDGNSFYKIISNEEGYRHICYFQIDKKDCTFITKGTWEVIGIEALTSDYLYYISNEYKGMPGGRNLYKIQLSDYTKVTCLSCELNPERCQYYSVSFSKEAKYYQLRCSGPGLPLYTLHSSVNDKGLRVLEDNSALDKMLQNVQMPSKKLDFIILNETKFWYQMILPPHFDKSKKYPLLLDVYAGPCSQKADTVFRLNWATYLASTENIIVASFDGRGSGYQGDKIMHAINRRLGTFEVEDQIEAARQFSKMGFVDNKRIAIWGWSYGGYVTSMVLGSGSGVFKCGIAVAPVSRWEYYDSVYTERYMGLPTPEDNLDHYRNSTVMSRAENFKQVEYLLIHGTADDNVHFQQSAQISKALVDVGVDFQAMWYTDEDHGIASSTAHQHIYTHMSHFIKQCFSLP
The test can be described thus: DPPIV enzymatic activity assay. The following applies: H-Gly-Pro-pNA substrate.

In test [3] the target is T3, recombinant human PREP (rhPREP) (Homo sapiens, UniProt P48147).
T3 sequence (P48147 1-710): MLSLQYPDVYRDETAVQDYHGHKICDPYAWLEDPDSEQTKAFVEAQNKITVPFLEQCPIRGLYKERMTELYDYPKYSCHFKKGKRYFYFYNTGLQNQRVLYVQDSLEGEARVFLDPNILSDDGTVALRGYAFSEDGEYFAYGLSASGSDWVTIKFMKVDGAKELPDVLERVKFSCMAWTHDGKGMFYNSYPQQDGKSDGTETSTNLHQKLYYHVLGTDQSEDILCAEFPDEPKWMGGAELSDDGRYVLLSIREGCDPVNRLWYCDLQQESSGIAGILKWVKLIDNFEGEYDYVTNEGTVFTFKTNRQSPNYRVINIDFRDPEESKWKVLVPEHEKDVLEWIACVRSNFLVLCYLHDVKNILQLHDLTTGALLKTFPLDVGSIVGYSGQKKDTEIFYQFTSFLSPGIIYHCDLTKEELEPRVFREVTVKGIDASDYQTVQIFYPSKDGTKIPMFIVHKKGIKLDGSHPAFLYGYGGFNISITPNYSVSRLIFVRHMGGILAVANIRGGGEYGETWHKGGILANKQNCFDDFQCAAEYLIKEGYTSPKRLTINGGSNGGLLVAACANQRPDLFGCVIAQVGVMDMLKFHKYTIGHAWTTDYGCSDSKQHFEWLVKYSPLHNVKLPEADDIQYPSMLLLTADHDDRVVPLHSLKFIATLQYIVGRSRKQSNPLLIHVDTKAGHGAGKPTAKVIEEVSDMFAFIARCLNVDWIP
The test can be described thus: PREP enzymatic activity assay. The following applies: Z-Gly-Pro-AMC substrate. The method, then: (§1) 7-Amino-4-Methylcoumarin (AMC) release was detected by measuring fluorescence at Ex/Em 380/460 nm using a Multifunction Microplate Reader (Synergy 4, Biotek). All measurements were carried out in triplicate.

For test [4], the target named is T4, recombinant human DPP9 (rhDPP9) (Homo sapiens, UniProt Q86TI2).
T4 construct: purchased R&S system (so in the source)
T4 sequence (Q86TI2 whole entry): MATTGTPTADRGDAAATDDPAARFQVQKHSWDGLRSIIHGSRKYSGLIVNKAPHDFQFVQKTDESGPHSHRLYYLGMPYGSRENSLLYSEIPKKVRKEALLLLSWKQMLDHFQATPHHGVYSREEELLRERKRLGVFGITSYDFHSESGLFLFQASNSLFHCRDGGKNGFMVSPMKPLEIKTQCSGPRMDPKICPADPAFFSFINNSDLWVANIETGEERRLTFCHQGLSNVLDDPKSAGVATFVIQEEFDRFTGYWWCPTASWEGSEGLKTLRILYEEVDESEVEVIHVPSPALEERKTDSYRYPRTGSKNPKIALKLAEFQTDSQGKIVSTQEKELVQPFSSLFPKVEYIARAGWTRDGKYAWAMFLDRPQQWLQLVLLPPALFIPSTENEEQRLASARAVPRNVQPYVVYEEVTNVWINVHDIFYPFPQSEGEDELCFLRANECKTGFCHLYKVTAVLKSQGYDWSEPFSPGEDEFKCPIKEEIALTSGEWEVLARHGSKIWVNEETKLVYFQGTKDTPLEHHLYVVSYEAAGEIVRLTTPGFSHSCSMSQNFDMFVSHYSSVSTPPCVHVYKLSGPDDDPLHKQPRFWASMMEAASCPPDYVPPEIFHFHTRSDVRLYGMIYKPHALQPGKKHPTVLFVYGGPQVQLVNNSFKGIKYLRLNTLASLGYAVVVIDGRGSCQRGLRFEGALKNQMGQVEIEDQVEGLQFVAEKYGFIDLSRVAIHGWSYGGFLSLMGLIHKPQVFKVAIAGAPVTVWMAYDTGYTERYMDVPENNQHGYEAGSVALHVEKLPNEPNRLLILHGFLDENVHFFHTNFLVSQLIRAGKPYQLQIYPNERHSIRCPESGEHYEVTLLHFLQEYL
The test can be described thus: DPP9 enzymatic activity assay. The following applies: H-Gly-Pro-AMC substrate. The protocol: as §1

Setting [5] is: 1 μM test compound, Z-Gly-Pro-AMC substrate.

Where two headings read alike, the source gives them in different places.

A word on the IC50: it is the concentration that inhibits the measured activity by half. Regarding `N#C[C@@H]1CC(F)(F)CN1C(=O)CNC(=O)c1ccc2nccc(-c3ccccc3)c2c1` [Compound 19, (S)—N-(2-(2-cyano-4,4-difluoropyrrolidin-1-yl)-2-oxoethyl)-4-phenylquinoline-6-carboxamide], in test [1] (setting [5]), the inhibition at 1 µM was over 50%. The IC50 in test [1] (Table 2, Z-Gly-Pro-AMC) is under 1000 nM; in test [1] (Table 3), under 1000 nM; in test [2], over 10 µM; in test [3], over 10 µM.
In the case of `Cc1ccccc1-c1cnccc1C(=O)NCC(=O)N1CC(F)(F)C[C@H]1C#N` [Compound 64, (S)—N-(2-(2-cyano-4,4-difluoropyrrolidin-1-yl)-2-oxoethyl)-3-(o-tolyl)isonicotinamide], the inhibition at 1 µM in test [1] (setting [5]) is over 50%. In addition, the IC50 was under 1000 nM in test [1] (Table 2, Z-Gly-Pro-AMC); under 1000 nM in test [1] (Table 3); over 10 µM in test [2]; over 10 µM in test [3]; over 10 µM in test [4].
With `N#C[C@@H]1CC(F)(F)CN1C(=O)C1CC(NC(=O)c2c[nH]c(=O)c3ccccc23)C1` (some centres unmarked) [Compound 101], the inhibition at 1 µM in test [1] (setting [5]) is under 25%.
With `N#C[C@@H]1CC(F)(F)CN1C(=O)CNC(=O)c1ccn2nccc2c1` [Compound 85], in test [1] (setting [5]), the inhibition at 1 µM is over 50%.
In the case of `N#C[C@H]1CC(F)(F)CN1C(=O)CNC(=O)c1ccncc1C1CC1` [compound 37], the inhibition at 1 µM in test [1] was over 50%.
For `N#C[C@@H]1CC(F)(F)CN1C(=O)CNC(=O)c1ccncc1N1CCC(N)CC1` [Compound 120, (S)-3-(4-aminopiperidin-1-yl)-N-(2-(2-cyano-4,4-difluoropyrrolidin-1-yl)-2-oxoethyl)isonicotinamide 2,2,2-trifluoroacetate], in test [1] (setting [5]), the inhibition at 1 µM is over 50%. Besides, the IC50 is under 1000 nM in test [1] (Table 2, Z-Gly-Pro-AMC); under 1000 nM in test [1] (Table 3); 1 to 10 µM in test [2]; over 10 µM in test [3]; over 10 µM in test [4].
On to `CC(NC(=O)c1c[nH]c(=O)c2ccccc12)C(=O)N1CC(F)(F)C[C@H]1C#N` (stereo partly drawn) [Compound 25, N-(1-((S)-2-cyano-4,4-difluoropyrrolidin-1-yl)-1-oxopropan-2-yl)-1-oxo-1,2-dihydroisoquinoline-4-carboxamide], for which the inhibition at 1 µM in test [1] was under 25%.
Turning to `N#Cc1ccc(C(=O)NCC(=O)N2CC(F)(F)C[C@H]2C#N)cc1` [Compound 17, (S)-4-cyano-N-(2-(2-cyano-4,4-difluoropyrrolidin-1-yl)-2-oxoethyl)benzamide], in test [1] (setting [5]), the inhibition at 1 µM lay in the range of 25 to 50%.
Still for that read-out and setting: in the case of `Cn1nc(C(=O)NCC(=O)N2CC(F)(F)C[C@H]2C#N)c2ccccc2c1=O` [Compound 81] it was under 25%.
Take `Cc1noc(C)c1-c1cnccc1C(=O)NCC(=O)N1CC(F)(F)C[C@H]1C#N` [Compound 110, (S)—N-(2-(2-cyano-4,4-difluoropyrrolidin-1-yl)-2-oxoethyl)-3-(3,5-dimethylisoxazol-4-yl)isonicotinamide]: the inhibition at 1 µM in test [1] (setting [5]) was over 50%. Also, the concentration for half-maximal inhibition (IC50) was under 1000 nM in test [1] (Table 2, Z-Gly-Pro-AMC); under 1000 nM in test [1] (Table 3); over 10 µM in test [2]; over 10 µM in test [3]; over 10 µM in test [4].
Consider `N#C[C@@H]1CC(F)(F)CN1C(=O)CCCNC(=O)c1c[nH]c(=O)c2ccccc12` [Compound 82, (S)—N-(4-(2-cyano-4,4-difluoropyrrolidin-1-yl)-4-oxobutyl)-1-oxo-1,2-dihydroisoquinoline-4-carboxamide], for which the inhibition at 1 µM in test [1] (setting [5]) was under 25%.
Consider `COc1cnccc1C(=O)NCC(=O)N1CC(F)(F)C[C@H]1C#N` [Compound 36], for which the inhibition at 1 µM in test [1] (setting [5]) was over 50%. Moreover, the IC50 in test [1] (Table 2, Z-Gly-Pro-AMC) was under 1000 nM; in test [1] (Table 3), under 1000 nM; in test [2], over 10 µM.
With `N#C[C@@H]1CC(F)(F)CN1C(=O)CNC(=O)C1=NNC(=O)C2C=CC=CC12` (some centres unmarked) [Compound 80], the inhibition at 1 µM in test [1] (setting [5]) is over 50%. For the same molecule, the IC50 is under 1000 nM in test [1] (Table 2, Z-Gly-Pro-AMC); under 1000 nM in test [1] (Table 3); over 10 µM in test [2].
Turning to `N#C[C@@H]1CC(F)(F)CN1C(=O)CNC(=O)c1coc(=O)c2ccccc12` [Compound 22, (S)—N-(2-(2-cyano-4,4-difluoropyrrolidin-1-yl)-2-oxoethyl)-1-oxo-1H-isochromene-4-carboxamide], the inhibition at 1 µM in test [1] (setting [5]) was over 50%. For the same molecule, the IC50 in test [1] (Table 2, Z-Gly-Pro-AMC) was under 1000 nM; in test [1] (Table 3), under 1000 nM; in test [2] it was over 10 µM; in test [3], 1 to 10 µM.
In the case of `N#C[C@@H]1CC(F)(F)CN1C(=O)C1(NC(=O)c2c[nH]c(=O)c3ccccc23)CC1` [Compound 23, (S)—N-(1-(2-cyano-4,4-difluoropyrrolidine-1-carbonyl)cyclopropyl)-1-oxo-1,2-dihydroisoquinoline-4-carboxamide], the inhibition at 1 µM in test [1] (setting [5]) was under 25%.
Same read-out and setting: to `N#C[C@@H]1CC(F)(F)CN1C(=O)CNC(=O)c1cc2ccncc2o1` [Compound 84] belongs 25 to 50%; to `N#Cc1ccc(C(=O)NCC(=O)N2CC(F)(F)C[C@H]2C#N)c(C(F)(F)F)c1` [Compound 18, (S)-4-cyano-N-(2-(2-cyano-4,4-difluoropyrrolidin-1-yl)-2-oxoethyl)-2-(trifluoromethyl)benzamide], 25 to 50%.
Turning to `N#C[C@@H]1CC(F)(F)CN1C(=O)CNC(=O)c1ccc(=O)[nH]c1-c1ccccc1` [compound 30], the inhibition at 1 µM in test [1] (setting [5]) is under 25%.
As for `N#C[C@@H]1CC(F)(F)CN1C(=O)CNC(=O)c1ccncc1/C=C/c1ccccc1` [Compound 124, (S,E)-N-(2-(2-cyano-4,4-difluoropyrrolidin-1-yl)-2-oxoethyl)-3-styrylisonicotinamide], the inhibition at 1 µM in test [1] (setting [5]) was over 50%. Besides, the IC50 in test [1] (Table 2, Z-Gly-Pro-AMC) was under 1000 nM; in test [1] (Table 3), under 1000 nM; in test [4], 1 to 10 µM.
As for `CCN1C(=O)CC[C@@H](C(=O)NCC(=O)N2CC(F)(F)C[C@H]2C#N)[C@@H]1c1ccccc1` [Compound 20, (2R,3R)—N-(2-((S)-2-cyano-4,4-difluoropyrrolidin-1-yl)-2-oxoethyl)-1-ethyl-6-oxo-2-phenylpiperidine-3-carboxamide], in test [1] (setting [5]), the inhibition at 1 µM lay in the range of 25 to 50%.
Regarding `N#C[C@@H]1CC(F)(F)CN1C(=O)CNC(=O)c1ccncc1CCc1ccccc1` [Compound 125, (S)—N-(2-(2-cyano-4,4-difluoropyrrolidin-1-yl)-2-oxoethyl)-3-phenethylisonicotinamide], the inhibition at 1 µM in test [1] (setting [5]) was over 50%. The IC50 was under 1000 nM in test [1] (Table 2, Z-Gly-Pro-AMC); under 1000 nM in test [1] (Table 3); 1 to 10 µM in test [4].
Consider `N#C[C@@H]1CC(F)(F)CN1C(=O)CNC(=O)c1ccc2[nH]ncc2c1` [Compound 83], for which the inhibition at 1 µM in test [1] (setting [5]) was in the range of 25 to 50%.
With `N#Cc1ccc(C(=O)NCC(=O)N2CC(F)(F)C[C@H]2C#N)cc1F` [Compound 15, (S)-4-cyano-N-(2-(2-cyano-4,4-difluoropyrrolidin-1-yl)-2-oxoethyl)-3-fluorobenzamide], in test [1] (setting [5]), the inhibition at 1 µM is 25 to 50%.
For the molecule `COc1ccc(C(=O)NCC(=O)N2CC(F)(F)C[C@H]2C#N)c(-c2ccccc2)n1` [Compound 86, (S)—N-(2-(2-cyano-4,4-difluoropyrrolidin-1-yl)-2-oxoethyl)-6-methoxy-2-phenylnicotinamide], the inhibition at 1 µM in test [1] (setting [5]) was 25 to 50%.
